Values quoted from earlier work, collected in US5017369A, “Film-forming teat sealer for prevention of mastitis and use thereof” (priority 1989, dated 1991).

Details: gluconate salt dissolved in water

In the case of `N=C(NCCCCCCNC(=N)NC(=N)Nc1ccc(Cl)cc1)NC(=N)Nc1ccc(Cl)cc1` [chlorhexidine gluconate, bis(p-chlorophenyl-diguanido)hexane], the “pH of water solutions” value is given as about 7.0.
